In ChEMBL document CHEMBL1140500, “Arene cis-dihydrodiols: useful precursors for the preparation of analogues of the anti-tumour agent, 2-crotonyloxymethyl-(4R,5R,6R)-4,5,6-trihydroxycyclohex-2-enone (COTC)” (Bioorg Med Chem Lett, 2007):

Tests used:
A549 = assay: Cytotoxicity against human A549 cells assessed as surviving cells after 4 days by MTT assay; type: cell-based
NCI-H460 = assay: Cytotoxicity against human H460 cells assessed as surviving cells after 4 days by MTT assay; type: cell-based

SMILES | IC50 (A549; a549) [µM] | IC50 (NCI-H460; nci-h460) [µM] | IC50 (A549; Homo sapiens, A549, 96 h) [µM] | IC50 (NCI-H460; Homo sapiens, NCI-H460, 96 h) [µM]
C/C=C/C(=O)OCC1=CC(O)C2OC(C)(OC)C(C)(OC)OC2C1=O (racemic) | 30 | 18 |  | 
C/C=C/C(=O)OCC1=CC(O)C2OC(C)(OC)C(C)(OC)OC2C1=O (single isomer, unassigned; (+)) |  |  | 60 | 36
C/C=C/C(=O)OCC1=CC(O)C(O)C(O)C1=O (single isomer, unassigned; (-)) |  |  | 170 | 158
C/C=C/C(=O)OCC1=CC(O)C(O)C(O)C1=O (racemic) | 184 | 160 |  | 
